The source of these data is patent US20230392126A1, “TISSUE ORGANOIDS” (priority 2016, published 2023).

For one series, the system named is human epidermal cells. In words: Secretion of GLP1 in culture medium by ELISA (human epidermal cells). Conditions: engineered human epidermal cells, doxycycline. It is filed as cell-based. The source says: To examine CRISPR-mediated genome editing in human epidermal cells, vectors encoding two gRNAs targeting human AAVS1 (adeno-associated virus integration site 1) locus, and an AAVS1-targeting vector (FIG. 16A) that harbors a tetracycline-inducible expression cassette encoding the GLP-1 and IgG-Fc fragment fusion protein were used. […] Clones were isolated and correct integration confirmed by southern blotting analysis (FIG. 13D).
(ELISA stands for enzyme-linked immunosorbent assay.)

Series [1] can be described thus: Obesity induced by high fat diet in grafted mice. In kind it is in vivo, mouse. The source says: Male CD-1 mice with skin transplants were housed (5 per cage, ˜8 weeks old) in a central-controlled animal facility for air, humidity and temperature. These mice were fed either a regular chow or an HFD (60% kcal from fats, 20% from carbohydrates, and 20% from proteins) purchased from Bio-Serv (Frenchtown, NJ). Body weight and food intake were measure biweekly.
To examine the potential applicability in diet-induced obesity and diabetes, GLP1/GGBP-expressing cells and control cells (GGBP alone) were transplanted into two cohorts of CD1 adult male mice. The mice were fed a high fat diet (HFD) to induce obesity in grafted animals. Compared with animals on a regular chow diet, the HFD greatly accelerated body weight gain in mice grafted with control cells.
Male CD-1 mice were housed (5 per cage, ˜8 weeks old) in a central-controlled animal facility for air, humidity, and temperature. These mice were fed either a regular chow or an HFD (60% kcal from fats, 20% from carbohydrates, and 20% from proteins) purchased from Bio-Serv (Frenchtown, NJ). Body weight and food intake were measure biweekly.
To examine the potential effect in diet-induced obesity and diabetes, GLP1-expressing cells and control cells were grafted onto two cohorts of CD1 adult mice, and a high fat diet (HFD) was used to induce obesity in the grafted animals. Doxycycline was applied to half of the animals to induce expression of GLP1. To minimize gender difference, only male animals were used. Compared with animals on regular chow diet, HFD greatly accelerated body weight gain in mice grafted with control cells or GLP1 cells without doxycycline treatment.

Series [2] can be described thus: Intraperitoneal glucose tolerance test (IPGTT) in grafted mice fed HFD. It is filed as in vivo, mouse. How it is done: For glucose tolerance testing, an intraperitoneal glucose tolerance test (IPGTT) was performed on mice fed an HFD for 10 weeks. Mice were fasted for 6 h before the test. Animals were injected (1 g/kg glucose/body weight, i.p.) with glucose dissolved in saline, and blood glucose was measured at 0, 10, 20, 30, 60 and 90 minutes using glucose test strips and glucose meters.
IPGTT was performed to examine glucose homeostasis.
For glucose and insulin tolerance tests, an intraperitoneal glucose tolerance test (IPGTT) was performed on mice fed an HFD for 10 weeks. Mice were fasted for 6 h before the test. Animals were injected (1 g/kg glucose/body weight, i.p.) with glucose dissolved in saline, and blood glucose was measured at 0, 30, 60 and 90 min using glucose test strips and glucose meters. An intraperitoneal insulin tolerance test was carried out 1 week after IPGTT. Mice were fasted for 4 h and injected (2 U/kg, i.p.) with insulin purchased from Sigma (St. Louis, MO). Blood glucose levels were determined thereafter at 0, 30, 60 and 90 min.
To examine glucose homeostasis, IPGTT (intraperitoneal glucose tolerance test) and ITT (insulin tolerance test) were performed.

Series [3] is described as follows: GLP1 level in blood by ELISA, CD1 mice grafted with mouse skin organoids. In kind it is in vivo. How it is done:
To investigate the potential therapeutic effect of GLP1 in vivo, skin organoid cultures with epidermal keratinocytes targeted with a GLP1-expression vector or a control vector, and transplant the organoids to CD1 host animals (FIGS. 11A and 11B-C) were prepared. […] Expression of GLP1 in grafted animals was stable for more than 3 months (FIG. 11K).

A further series has as its system epidermal stem cells. In words: Anchorage-independent growth in soft agar. Conditions: SCC cancer initiating cells as positive control.

Consider GLP1, for which, in the series with human epidermal cells, the GLP1 production entry was “strong GLP1 production upon dose-dependent stimulation with doxycycline”. Further, the body weight increase result in series [1] (HFD, GLP1/GGBP-expressing grafts vs GGBP alone, CD1 male mice) was “significant inhibition in body weight increase”. Also, in series [1] (HFD, doxycycline-induced GLP1 expression, CD1 male mice), the body weight entry is “significant decrease in body weight”. Moreover, the “HFD-induced adipocyte hypertrophy in white fat tissue” value in series [1] (doxycycline-induced GLP1 expression) is given as “dramatically suppressed this effect”. For the same substance, the glycemic excursion entry in series [2] (GLP1/GGBP grafts, blood glucose and GGBP imaging) is “significantly reduced glycemic excursion”; in series [2] (HFD, doxycycline-induced GLP1) it was “significantly reduced glycemic excursion”. Also, the “level of GLP1 in the blood” value in series [3] (food containing doxycycline) is recorded as “significantly enhanced level of GLP1 in the blood”. The “duration of stable GLP1 expression in grafted animals” value in series [3] (mouse, in vivo) is reported as “more than 3 months”. For the same substance, the “anchorage-independent growth (tumorigenicity)” value in the series with epidermal stem cells is “cannot grow in suspension”.
